Reference: ChEMBL document CHEMBL5150060 (J Med Chem, 2022)
The source made the active and inactive calls. The calls are words filed in the database; no cut-off is given here.

What was measured:
[1] = molecular target: T1, Histone deacetylase 2 (Homo sapiens, UniProt Q92769); test: Inhibition of recombinant human HDAC2 at 1 uM using p53 (Ac-RHKK(Acetyl)-AMC) as substrate preincubated for 5 mins followed by substrate addition and measured after 30 mins by fluorescence based analysis relative to control; details: time 35.0 min
T1 sequence (Q92769 whole entry): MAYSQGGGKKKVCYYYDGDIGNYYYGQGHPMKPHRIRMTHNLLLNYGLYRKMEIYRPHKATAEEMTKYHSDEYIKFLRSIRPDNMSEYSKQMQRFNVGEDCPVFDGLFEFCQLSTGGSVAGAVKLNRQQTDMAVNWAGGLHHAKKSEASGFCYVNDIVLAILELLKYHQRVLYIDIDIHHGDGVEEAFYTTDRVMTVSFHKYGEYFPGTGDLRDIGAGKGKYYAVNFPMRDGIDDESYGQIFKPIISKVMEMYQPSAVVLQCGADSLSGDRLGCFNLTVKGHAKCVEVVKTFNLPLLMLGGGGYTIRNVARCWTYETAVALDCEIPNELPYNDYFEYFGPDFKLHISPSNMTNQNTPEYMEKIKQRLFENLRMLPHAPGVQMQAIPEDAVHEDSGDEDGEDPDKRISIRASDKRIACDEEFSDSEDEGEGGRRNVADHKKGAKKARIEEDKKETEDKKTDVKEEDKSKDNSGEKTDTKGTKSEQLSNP

[2] = molecular target: T2, Histone deacetylase 1 (Homo sapiens, UniProt Q13547); test: Inhibition of recombinant human HDAC1 at 10 uM using p53 (Ac-RHKK(Acetyl)-AMC) as substrate preincubated for 5 mins followed by substrate addition and measured after 90 mins by fluorescence based analysis relative to control; details: time 95.0 min
T2 sequence (Q13547 whole entry): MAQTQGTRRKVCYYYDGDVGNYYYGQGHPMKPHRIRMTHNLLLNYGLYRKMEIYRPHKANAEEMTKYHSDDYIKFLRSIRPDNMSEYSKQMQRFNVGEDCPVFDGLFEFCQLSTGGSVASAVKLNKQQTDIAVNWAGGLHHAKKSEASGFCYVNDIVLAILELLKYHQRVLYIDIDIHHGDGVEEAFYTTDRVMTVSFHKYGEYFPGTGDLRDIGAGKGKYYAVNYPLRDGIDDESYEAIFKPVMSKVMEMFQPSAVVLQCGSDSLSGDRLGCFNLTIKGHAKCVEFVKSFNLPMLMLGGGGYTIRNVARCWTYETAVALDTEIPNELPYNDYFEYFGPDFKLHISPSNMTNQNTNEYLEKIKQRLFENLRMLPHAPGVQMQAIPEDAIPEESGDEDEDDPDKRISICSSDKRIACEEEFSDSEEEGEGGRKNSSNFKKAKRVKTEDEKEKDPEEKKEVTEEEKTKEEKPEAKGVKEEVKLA

[3] = molecular target: T2, Histone deacetylase 1; test: Inhibition of recombinant human HDAC1 at 1 uM using p53 (Ac-RHKK(Acetyl)-AMC) as substrate preincubated for 5 mins followed by substrate addition and measured after 90 mins by fluorescence based analysis relative to control; details: time 95.0 min
[4] = molecular target: T3, Histone deacetylase 3 (Homo sapiens, UniProt O15379); test: Inhibition of recombinant human HDAC3 at 1 uM using p53 (Ac-RHKK(Acetyl)-AMC) as substrate preincubated for 5 mins followed by substrate addition and measured after 30 mins by fluorescence based analysis relative to control; details: time 35.0 min
T3 sequence (O15379 whole entry): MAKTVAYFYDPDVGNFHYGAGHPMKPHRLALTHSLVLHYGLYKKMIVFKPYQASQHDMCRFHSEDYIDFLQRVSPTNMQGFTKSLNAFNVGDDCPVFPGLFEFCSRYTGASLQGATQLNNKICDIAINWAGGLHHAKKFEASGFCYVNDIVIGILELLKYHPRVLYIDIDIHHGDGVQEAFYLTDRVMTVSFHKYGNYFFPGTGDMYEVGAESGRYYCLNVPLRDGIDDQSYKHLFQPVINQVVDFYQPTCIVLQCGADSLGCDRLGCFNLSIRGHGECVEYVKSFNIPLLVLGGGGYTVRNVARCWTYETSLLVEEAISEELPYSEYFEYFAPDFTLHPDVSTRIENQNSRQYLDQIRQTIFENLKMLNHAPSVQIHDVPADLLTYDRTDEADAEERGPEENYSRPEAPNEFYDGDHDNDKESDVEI

[5] = molecular target: T3, Histone deacetylase 3; test: Inhibition of recombinant human HDAC3 at 10 uM using p53 (Ac-RHKK(Acetyl)-AMC) as substrate preincubated for 5 mins followed by substrate addition and measured after 30 mins by fluorescence based analysis relative to control; details: time 35.0 min
[6] = tested on: HEK293; test: Cytotoxicity against HEK293 cells assessed as reduction in cell viability at 50 uM after 24 hrs by alamar blue assay; type: toxicity, cell-based; details: human, hek293, 24 h
[7] = molecular target: T1, Histone deacetylase 2; test: Inhibition of recombinant human HDAC2 at 10 uM using p53 (Ac-RHKK(Acetyl)-AMC) as substrate preincubated for 5 mins followed by substrate addition and measured after 30 mins by fluorescence based analysis relative to control; details: time 35.0 min
[8] = molecular target: T4, Histone deacetylase 8 (Homo sapiens) (UniProt Q9BY41); test: Inhibition of recombinant human HDAC8 at 1 uM using (Abz-SRGK(thio-TFA)FFRR-NH2) as substrate preincubated for 5 mins followed by substrate addition by fluorescence based analysis relative to control
T4 sequence (whole entry): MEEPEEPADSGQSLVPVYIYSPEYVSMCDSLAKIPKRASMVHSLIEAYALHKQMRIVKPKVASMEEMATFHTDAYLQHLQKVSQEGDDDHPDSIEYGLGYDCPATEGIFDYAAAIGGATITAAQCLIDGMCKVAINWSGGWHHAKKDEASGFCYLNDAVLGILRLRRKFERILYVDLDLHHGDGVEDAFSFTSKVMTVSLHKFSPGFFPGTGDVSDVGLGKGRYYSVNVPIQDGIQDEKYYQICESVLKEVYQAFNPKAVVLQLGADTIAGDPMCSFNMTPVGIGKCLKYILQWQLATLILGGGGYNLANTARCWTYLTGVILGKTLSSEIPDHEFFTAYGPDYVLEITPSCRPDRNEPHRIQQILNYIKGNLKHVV

[9] = molecular target: T4, Histone deacetylase 8 (Homo sapiens); test: Inhibition of recombinant human HDAC8 at 10 uM using (Abz-SRGK(thio-TFA)FFRR-NH2) as substrate preincubated for 5 mins followed by substrate addition by fluorescence based analysis relative to control
[10] = molecular target: T5, Protein deacetylase HDAC6 (Homo sapiens, UniProt Q9UBN7); test: Inhibition of recombinant human HDAC6 (unknown origin)
T5 sequence (Q9UBN7 whole entry): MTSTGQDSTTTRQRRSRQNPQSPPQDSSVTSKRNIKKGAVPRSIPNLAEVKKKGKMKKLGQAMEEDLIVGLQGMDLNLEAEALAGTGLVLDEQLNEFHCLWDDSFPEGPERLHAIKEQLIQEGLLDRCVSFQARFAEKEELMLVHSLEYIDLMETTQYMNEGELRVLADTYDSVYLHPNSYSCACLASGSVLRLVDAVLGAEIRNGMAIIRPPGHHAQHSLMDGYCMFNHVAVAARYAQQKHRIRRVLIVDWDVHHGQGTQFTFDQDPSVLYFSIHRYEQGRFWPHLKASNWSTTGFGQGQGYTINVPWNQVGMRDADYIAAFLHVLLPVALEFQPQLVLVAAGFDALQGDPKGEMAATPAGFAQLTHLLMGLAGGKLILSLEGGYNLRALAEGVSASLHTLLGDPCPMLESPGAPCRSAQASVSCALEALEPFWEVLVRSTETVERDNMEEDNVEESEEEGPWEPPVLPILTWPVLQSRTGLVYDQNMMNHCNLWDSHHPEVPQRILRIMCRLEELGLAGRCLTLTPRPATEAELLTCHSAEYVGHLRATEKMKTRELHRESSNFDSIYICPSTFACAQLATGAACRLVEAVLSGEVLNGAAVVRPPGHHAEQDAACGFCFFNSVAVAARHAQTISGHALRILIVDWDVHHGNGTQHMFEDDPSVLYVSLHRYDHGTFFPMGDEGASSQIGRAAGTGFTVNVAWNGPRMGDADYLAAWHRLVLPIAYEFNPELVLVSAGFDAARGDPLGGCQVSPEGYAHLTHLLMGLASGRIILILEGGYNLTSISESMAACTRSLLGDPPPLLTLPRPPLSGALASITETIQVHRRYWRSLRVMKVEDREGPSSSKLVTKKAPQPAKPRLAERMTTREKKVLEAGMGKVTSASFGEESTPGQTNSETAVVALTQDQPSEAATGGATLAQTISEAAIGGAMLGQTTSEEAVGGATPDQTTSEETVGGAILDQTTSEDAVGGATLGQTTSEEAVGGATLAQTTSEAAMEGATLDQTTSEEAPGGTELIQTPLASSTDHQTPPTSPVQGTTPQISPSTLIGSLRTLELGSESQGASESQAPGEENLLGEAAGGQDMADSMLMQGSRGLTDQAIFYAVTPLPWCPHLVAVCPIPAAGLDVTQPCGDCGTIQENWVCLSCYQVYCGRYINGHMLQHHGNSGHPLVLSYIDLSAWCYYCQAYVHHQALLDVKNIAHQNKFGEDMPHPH

[11] = molecular target: T1, Histone deacetylase 2; test: Inhibition of recombinant human HDAC2 using p53 (Ac-RHKK(Acetyl)-AMC) as substrate preincubated for 5 mins followed by substrate addition and measured after 30 mins by fluorescence based analysis
[12] = Stability of compound in DMEM/DMSO/acetonitrile at pH 7.4 measured after 72 hrs by HPLC analysis; type: physicochemical; details: read-out: Stability
[13] = molecular target: T2, Histone deacetylase 1; test: Inhibition of recombinant human HDAC1 using p53 (Ac-RHKK(Acetyl)-AMC) as substrate preincubated for 5 mins followed by substrate addition and measured after 90 mins by fluorescence based analysis
[14] = molecular target: T3, Histone deacetylase 3; test: Inhibition of recombinant human HDAC3 using p53 (Ac-RHKK(Acetyl)-AMC) as substrate preincubated for 5 mins followed by substrate addition and measured after 30 mins by fluorescence based analysis
[15] = Stability of compound in DMEM/DMSO/acetonitrile at pH 7.4 measured after 12 hrs by HPLC analysis; type: physicochemical; details: read-out: Stability
[16] = molecular target: Histone deacetylase 4 (Homo sapiens, UniProt P56524); test: Inhibition of HDAC4 (unknown origin)
Histone deacetylase 4, sequence (P56524 whole entry): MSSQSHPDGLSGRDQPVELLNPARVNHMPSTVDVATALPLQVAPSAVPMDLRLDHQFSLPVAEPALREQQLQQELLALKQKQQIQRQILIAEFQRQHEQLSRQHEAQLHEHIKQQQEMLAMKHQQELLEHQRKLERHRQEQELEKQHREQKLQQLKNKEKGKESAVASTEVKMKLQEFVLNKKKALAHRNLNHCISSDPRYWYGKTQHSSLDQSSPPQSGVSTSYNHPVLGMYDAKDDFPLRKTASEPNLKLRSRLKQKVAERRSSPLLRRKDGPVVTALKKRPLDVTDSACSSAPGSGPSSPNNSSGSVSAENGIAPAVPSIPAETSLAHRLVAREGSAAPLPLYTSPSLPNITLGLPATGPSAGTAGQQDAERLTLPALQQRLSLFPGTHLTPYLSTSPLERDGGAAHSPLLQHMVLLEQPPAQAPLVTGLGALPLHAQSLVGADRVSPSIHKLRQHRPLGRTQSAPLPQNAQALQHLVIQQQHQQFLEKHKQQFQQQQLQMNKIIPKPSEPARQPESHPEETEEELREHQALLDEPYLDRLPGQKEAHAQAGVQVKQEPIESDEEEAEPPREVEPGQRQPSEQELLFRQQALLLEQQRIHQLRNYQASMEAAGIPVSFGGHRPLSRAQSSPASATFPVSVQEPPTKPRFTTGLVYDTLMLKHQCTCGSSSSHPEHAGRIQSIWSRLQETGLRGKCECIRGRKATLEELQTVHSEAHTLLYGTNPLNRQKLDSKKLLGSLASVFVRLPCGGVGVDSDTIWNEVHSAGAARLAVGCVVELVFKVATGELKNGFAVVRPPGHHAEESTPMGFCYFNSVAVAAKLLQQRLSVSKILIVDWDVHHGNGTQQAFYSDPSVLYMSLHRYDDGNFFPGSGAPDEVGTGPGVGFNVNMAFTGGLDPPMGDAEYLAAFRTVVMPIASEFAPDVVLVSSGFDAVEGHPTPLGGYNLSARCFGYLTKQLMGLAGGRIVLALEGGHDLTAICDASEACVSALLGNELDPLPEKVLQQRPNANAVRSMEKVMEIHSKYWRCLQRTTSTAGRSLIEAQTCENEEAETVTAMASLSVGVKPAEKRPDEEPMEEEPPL

[17] = molecular target: T4, Histone deacetylase 8 (Homo sapiens); test: Reversible binding affinity to recombinant human HDAC8 incubated for 30 mins by jump dilution method
[18] = molecular target: T4, Histone deacetylase 8 (Homo sapiens); test: Inhibition of HDAC8 in human Jurkat T cells assessed as increase in H3K27 acetylation at 10 uM after 6 hrs by Western blot analysis; type: cell-based
[19] = molecular target: T6, Histone deacetylase 8 (Homo sapiens, UniProt Q9BY41); test: Competitive inhibition of human HDAC8 using Abz-SRGGK(STFA)FFRR-NH2 (S) as substrate by Lineweaver-burk plot analysis
T6 sequence (Q9BY41 whole entry): T4 sequence (whole entry)

[20] = Stability of compound in DMEM/DMSO/acetonitrile at pH 7.4 measured after 6 hrs by HPLC analysis; type: physicochemical; details: read-out: Stability
[21] = molecular target: T6, Histone deacetylase 8; test: Inhibition of recombinant human HDAC8 using (Abz-SRGK(thio-TFA)FFRR-NH2) as substrate preincubated for 5 mins followed by substrate addition by fluorescence based analysis
[22] = molecular target: T7, Histone deacetylase 11 (Homo sapiens, UniProt Q96DB2); test: Inhibition of recombinant human HDAC11 preincubated for 10 mins followed by substrate addition by fluorescence based analysis
T7 sequence (Q96DB2 whole entry): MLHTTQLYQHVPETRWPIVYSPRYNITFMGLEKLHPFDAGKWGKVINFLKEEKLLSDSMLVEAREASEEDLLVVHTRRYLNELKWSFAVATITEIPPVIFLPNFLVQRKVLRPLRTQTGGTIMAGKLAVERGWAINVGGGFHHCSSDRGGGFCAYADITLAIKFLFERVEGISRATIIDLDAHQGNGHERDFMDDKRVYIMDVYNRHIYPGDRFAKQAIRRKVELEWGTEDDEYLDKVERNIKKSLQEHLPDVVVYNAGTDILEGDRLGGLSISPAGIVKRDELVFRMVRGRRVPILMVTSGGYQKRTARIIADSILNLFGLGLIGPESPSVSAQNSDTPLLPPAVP

[23] = Stability of compound in DMEM/DMSO/acetonitrile at pH 7.4 measured after 24 hrs by HPLC analysis; type: physicochemical; details: read-out: Stability
[24] = Stability of compound in DMEM/DMSO/acetonitrile at pH 7.4 measured after 48 hrs by HPLC analysis; type: physicochemical; details: read-out: Stability
[25] = tested on: HEK293; test: Cytotoxicity against HEK293 cells assessed as reduction in cell viability after 24 hrs by alamar blue assay; type: functional, cell-based; details: Homo sapiens, HEK293, 24 h

SMILES	inhibition [1]	inhibition [2]	inhibition [3]	inhibition [4]	inhibition [5]	inhibition [7]	inhibition [8]	inhibition [9]	IC50 [10]	IC50 [11]	remaining at 72 h [12]	IC50 [13]	IC50 [14]	remaining at 12 h [15]	IC50 [16]	remaining at 6 h [20]	IC50 [21]	IC50 [22]	remaining at 24 h [23]	Cell viability [6]	further results
CCCNNC(=O)c1cnc(NCCc2ccccc2)nc1	39%	85%	51%	41%	87%	90%	51%	89%												80.5%	
COc1cccc2c1C(=O)c1c(O)c3c(c(O)c1C2=O)C[C@@](O)(C(C)=O)C[C@@H]3O[C@H]1C[C@H](N)[C@H](O)[C@H](C)O1 [DAUNORUBICIN]																					IC50 [25]: 1.2 µM

The next lines start with results.

inhibition [1]	inhibition [2]	inhibition [3]	inhibition [4]	inhibition [5]	inhibition [7]	inhibition [8]	inhibition [9]	IC50 [10]	IC50 [11]	remaining at 72 h [12]	IC50 [13]	IC50 [14]	remaining at 12 h [15]	IC50 [16]	remaining at 6 h [20]	IC50 [21]	IC50 [22]	remaining at 24 h [23]	SMILES	Cell viability [6]	further results
5%	35%	9%	9%	42%	26%	2%	100%												CCCCCCNNC(=O)c1ccc(C)c(NCc2ccccc2)c1	41.7%	
								> 20 µM	1.1 µM	31.1%	0.073 µM	0.03 µM	83.3%	> 20 µM	81.7%	0.0082 µM	0.57 µM	82.9%	CCCNNC(=O)c1cnc(N2CCN(Cc3c[nH]c4ccccc34)CC2)nc1	47%	Activity [17]: Active; inhibition [18]: Active; Ki [19]: 0.0055 µM; remaining at 48 h [24]: 27.1%
								> 20 µM	0.63 µM	86.8%	1.6 µM	0.091 µM	97.3%	0.99 µM	98.3%	0.7 µM	1.8 µM	94.9%	CCCNNC(=O)c1ccc(-c2ccc(CNC(C)=O)cc2)cc1	83.9%	remaining at 48 h [24]: 90.4%
